The source of these data is patent publication US11607406B2, “Therapeutical methods, formulations and nutraceutical formulations” (priority 2014, dated 2023).

Data set [1] has as its system volunteer. The experiment in a line: Pre ejaculation time of volunteers after taking the formulation or drug orally. Type of data set: in vivo, human. Particulars: for average pre ejaculation time: 5 minutes without the drug.
Data set [2] concerns volunteer. The experiment in a line: Side effects reported by the volunteers after taking the formulation or drug orally. Type of data set: in vivo, human.
Setting [3] is: capsule, 60 mg only, after 3 hours, repeated experiments.

The structures appear in SMILES notation.

For `COc1cccc(C2(O)CCCCC2CN(C)C)c1` (centres unmarked) [Tramadol, 2-[(dimethylamino)methyl]-1-(3-methoxyphenyl)-cyclohexanol], the “average pre ejaculation time” value in the data set with volunteer [1] (20 mg only) is 10 min. In the case of `COc1cc(/C=C/C(=O)CC(=O)/C=C/c2ccc(O)c(OC)c2)ccc1O` [curcumin, diferuloylmethane], in the data set on volunteer [1] (capsule with curcumin 500 mg, after 1 hours, 3 hours and 12 hours), the “changes in pre ejaculation time” value was “no significant changes”. As to `CN(C)[C@@H](CCOc1cccc2ccccc12)c1ccccc1` [dapoxetine], the “average pre ejaculation time” value in the data set on volunteer [1] (setting [3]) turned out to be 20 min. Further, in the data set on volunteer [2] (capsule, 60 mg only), the side effects entry is “significant side effects (stomach irritation, nausea and headache)”. Consider `CNCC[C@H](Oc1cccc2ccccc12)c1cccs1` [duloxetine], for which, in the data set with volunteer [1] (setting [3]), the “increase in pre-ejaculation time” value was “no significant increase”. Moreover, the side effects result in the data set with volunteer [2] (capsule, 60 mg only) is “significant side effects (stomach irritation, nausea and headache)”. Take `CN(C)CCC[C@@]1(c2ccc(F)cc2)OCc2cc(C#N)ccc21` [escitalopram]: the “changes in pre ejaculation time” value in the data set on volunteer [1] (20 mg only, once orally, after 3 hours) is on record as “no significant changes”. Also, in the data set with volunteer [2] (20 mg only, once orally), the side effects result is given as “significant side effects”. Turning to `CC(C)=CCC[C@]1(C)[C@@H](CC=C(C)C)C[C@@]2(CC=C(C)C)C(=O)[C@]1(C(=O)C(C)C)C(=O)C(CC=C(C)C)=C2O` [hyperforin], the “average pre ejaculation time (change)” value with volunteer [1] (1 capsule, 10 mg only, after 2 hours) is recorded as “not changed”. In the data set with volunteer [1] (1 capsule, 30 mg only, after 2 hours, repeated tests), the “average pre ejaculation time” value is listed as “around 8 minutes”. The side effects entry in the data set with volunteer [2] (1 capsule, 30 mg only (hyperforin)) is reported as “headache”.

Consider `Fc1ccc([C@@H]2CCNC[C@H]2COc2ccc3c(c2)OCO3)cc1` [paroxetine], for which the “average pre ejaculation time” value with volunteer [1] (capsule, 30 mg only, after 3 hours, repeated experiments) was found to be 8 min. The side effects result with volunteer [2] (capsule, 30 mg only (paroxetine)) was “significant side effects (stomach irritation, nausea and headache)”. Consider `COc1cc2c(cc1OC)[C@@H]1Cc3ccc(OC)c(OC)c3CN1CC2` [rotundine, L-tetrahydropalmatine], for which the ejaculation latency result in the data set with volunteer [1] (alone, taken orally 50~200 mg 1 hr before sex) is given as “increase ejaculation latency”. As to `CN[C@H]1CC[C@@H](c2ccc(Cl)c(Cl)c2)c2ccccc21` [sertraline], the “average pre ejaculation time” value in the data set on volunteer [1] (60 mg once daily for 10 days continuously) was determined as 10 min. Also, the “increase in pre-ejaculation time” value in the data set on volunteer [1] (setting [3]) is reported as “no significant increase”. Also, the side effects result in the data set with volunteer [2] (capsule, 60 mg only) is “significant side effects (stomach irritation, nausea and headache)”.
